SMILES strings stand for the structures. Converted amounts (≈) assume the structure as drawn.

In series [1] the test system is Herpes simplex virus-2 (G). As to the kind of experiment: microbe, parasite or virus in culture. It counts as cell-based. Particulars: Human alphaherpesvirus 2, HEL, read-out: Antiviral EC50 Herpes simplex virus-2 (G).
The test system of another series is Vaccinia virus. The series is described as follows: microbe, parasite or virus in culture. The format is cell-based. Particulars: Orthopoxvirus vaccinia, HEL, read-out: Antiviral EC50 Vaccinia virus.
Series [2] has as its system Herpes simplex virus-1 (KOS). The series is described as follows: microbe, parasite or virus in culture. The format is cell-based. Particulars: Human alphaherpesvirus 1, HEL, read-out: Antiviral EC50 Herpes simplex virus-1 (KOS).
The nature of series [3]: in vitro. Particulars: human.
The test system of a further series is Adeno virus-2. The series is described as follows: organism not typed. It counts as cell-based. Particulars: HEL, read-out: Antiviral EC50 Adeno virus-2.
Series [4] in a line: Cytotoxicity in Vero cell cultures (MTS). The format is cell-based, African green monkey. As to conditions: African green monkey, Vero cells (kidney epithelial cells), uninfected, MTS assay, read-out: Cytotoxixity CC50. On the technique in general: Tetrazolium assays rely on reduction of a dye to a coloured formazan, in cell work by metabolically active cells.
Series [5] concerns Influenza A virus A/HK/7/87 (H3N2). As to the kind of experiment: Antiviral CPE assay, Influenza A (H3N2) in MDCK cells. It counts as cell-based. Particulars: Influenza A virus, H3N2, MDCK.
A further series deals with Sindbis virus. As to the kind of experiment: Antiviral CPE assay, Sindbis virus in Vero cells. It counts as cell-based. Particulars: Sindbis virus, Vero.
In series [6] the test system is Respiratory syncytial virus. As to the kind of experiment: Antiviral CPE assay, Respiratory syncytial virus in HEp-2 cells. As to conditions: human respiratory syncytial virus, HEp-2. The format is cell-based.
Series [7] can be described thus: Cytotoxicity in HEp-2 cell cultures (MTS). Particulars: human.
Series [8] relates to Human immunodeficiency virus (ROD). The series is described as follows: Antiviral CPE assay, HIV-2 (ROD) in MT-4 cells. The format is cell-based. Particulars: Human immunodeficiency virus 2, MT4.
Series [9] has as its system Vesicular stomatitis virus. The series is described as follows: microbe, parasite or virus in culture. It counts as cell-based. Particulars: Vesicular stomatitis virus, HEp-2, read-out: Antiviral EC50 Vesicular stomatitis virus.
In series [10] the test system is Influenza A virus A/Ned/378/05A (H1N1). As to the kind of experiment: Antiviral CPE assay, Influenza A (H1N1) in MDCK cells. The format is cell-based. Particulars: Influenza A virus, H1N1, MDCK.
Series [11] concerns Influenza B virus B/Ned/537/05. The series is described as follows: Antiviral CPE assay, Influenza B in MDCK cells. The format is cell-based. As to conditions: Influenza B virus; MDCK cell cultures.
The next series concerns Reo-virus-1. As to the kind of experiment: Antiviral CPE assay, Reovirus-1 in Vero cells. The format is cell-based. Particulars: Vero.
The test system of series [12] is Human immunodeficiency virus (IIIB). As to the kind of experiment: Antiviral CPE assay, HIV-1 (IIIB) in MT-4 cells. It counts as cell-based, human immunodeficiency virus type 1 (HIV-1). As to conditions: Human immunodeficiency virus 1, IIIB, MT4.
Another series has as its system Zika virus. The series is described as follows: Antiviral CPE assay, Zika virus in Vero cells. It counts as cell-based. Particulars: Zika virus, Vero.
Series [13] is described as follows: in vitro. As to conditions: dog.
The test system of series [14] is Coxsackie virus B4. As to the kind of experiment: Antiviral CPE assay, Coxsackie virus B4 in Vero cells. It counts as cell-based. Particulars: Enterovirus B, B4, Vero.
The next series deals with Yellow Fever virus. The series is described as follows: microbe, parasite or virus in culture. It counts as cell-based. As to conditions: Yellow fever virus, Vero, read-out: Antiviral EC50 Yellow Fever virus, Vero cell cultures.
Series [15] in a line: Cytotoxicity in MT-4 cell cultures (MTS). As to conditions: human, Cytotoxixity CC50, MT-4 cell cultures, MTS assay.
The next series has as its system Human Coronavirus (229E). The series is described as follows: microbe, parasite or virus in culture. Particulars: Human coronavirus 229E, HEL, read-out: Antiviral EC50 Human Coronavirus (229E). It counts as cell-based.
Series [16] has as its system Coxsackie virus B4. The series is described as follows: Antiviral CPE assay, Coxsackie virus B4 in HEp-2 cells. Particulars: Enterovirus B, B4, HEp-2. It counts as cell-based.
Another series has as its system Punta Toro virus. As to the kind of experiment: Antiviral CPE assay, Punta Toro virus in Vero cells. Particulars: Punta Toro virus, Vero. The format is cell-based.

Regarding `Nc1nc2c(ncn2COCCO)c(=O)[nH]1` [Acyclovir, reference compound], the EC50 (commonly the concentration that produces a half-maximal response) in series [1] is 0.5 µM; with Vaccinia virus, over 250 µM; in [2] it was 1.9 µM. Also, the CC50 in the series “in vitro [3]” was over 250 µM.

Regarding `O=c1[nH]c(=O)n([C@H]2C[C@H](O)[C@@H](CO)O2)cc1/C=C/Br` [Brivudin, reference compound], the EC50 in [1] was 22.1 µM; in the series on Vaccinia virus, 12.6 µM; in series [2] it was 0.2 µM. The same compound came in with a CC50 in the series “in vitro [3]” of over 250 µM.

On to `Nc1ccn(C[C@@H](CO)OCP(=O)(O)O)c(=O)n1` [Cidofovir, reference compound], for which the EC50 was 7.5 µM in series [1], 8.7 µM with Vaccinia virus, 39.3 µM in [2] and 9.9 µM in the series on Adeno virus-2. Besides, in the series “in vitro [3]”, the CC50 is over 250 µM.

`Cc1cn(C2CC(O)C(CO)C3CC32)c(=O)[nH]c1=O` (stereo not drawn) [Compound 1a, 1-((1′S,2′S,4′R,5′R,6′R)-4′-Hydroxy-5′-(hydroxymethyl)bicyclo[4.1.0]heptan-2′-yl)-5-methylpyrimidine-2,4(1H,3H)-dione]: the melting point – broadly, the temperature of the solid-liquid transition – is 189 to 191 °C. The CC50 in series [4] is over 50 µg/mL. Also, the EC50 in [5] is over 50 µg/mL. The concentration giving a half-maximal response (EC50) in [1] is over 50 µg/mL. For the same compound, the EC50 in the series with Sindbis virus was over 50 µg/mL. Also, in the series on Vaccinia virus, the EC50 is over 50 µg/mL. In series [6], this compound yielded an EC50 of over 50 µg/mL. This compound yielded a CC50 in [7] of over 50 µg/mL. This compound also came in with an EC50 in [8] of over 99.1 µg/mL. The concentration for a half-maximal effect (EC50) in series [9] is over 50 µg/mL. In series [10], this compound came in with an EC50 of over 50 µg/mL. The compound also showed an EC50 in series [11] of over 50 µg/mL. In the series on Reo-virus-1, this compound came in with an EC50 of over 50 µg/mL. The compound also yielded an EC50 in series [12] of over 99.1 µg/mL. The EC50 in the series with Zika virus was over 50 µg/mL. The same compound displayed a CC50 in “in vitro [13]” of over 50 µg/mL. The EC50 in the series on Coxsackie virus B4 [14] is over 50 µg/mL. In [2], the EC50 was over 50 µg/mL. Besides, the EC50 in the series on Adeno virus-2 was over 50 µg/mL. Besides, the EC50 in the series with Yellow Fever virus is over 50 µg/mL. In [15], this compound registered a CC50 of 99.1 µg/mL (≈ 372 µM). In addition, in the series on Human Coronavirus (229E), the EC50 is over 50 µg/mL. In addition, the EC50 in the series with Coxsackie virus B4 [16] is over 50 µg/mL. The EC50 in the series on Punta Toro virus was over 50 µg/mL.

On to `Cc1cn(C2CC=C(CO)C3CC32)c(=O)[nH]c1=O` (stereo not drawn) [Compound 19, 1-[(1′S,2′S,6′R)-5′-(hydroxymethyl)-bicyclo[4.1.0]hept-4′-en-2′-yl]-5-methylpyrimidine-2,4(1H,3H)-dione], for which the CC50 was over 50 µg/mL in series [4], over 50 µg/mL in [7], 18.6 µg/mL (≈ 74.9 µM) in “in vitro [13]” and 109 µg/mL (≈ 440 µM) in [15]. The EC50 is over 50 µg/mL in [5]; over 50 µg/mL in series [1]; over 50 µg/mL in the series on Sindbis virus; over 50 µg/mL in the series with Vaccinia virus; over 50 µg/mL in [6]; over 109 µg/mL in [8]. The half-maximal effective concentration (EC50) was over 50 µg/mL in series [9]; over 50 µg/mL in series [10]; over 50 µg/mL in series [11]; over 50 µg/mL in the series on Reo-virus-1; over 109 µg/mL in series [12]; over 50 µg/mL in the series with Zika virus. Moreover, the EC50 (in the series with Coxsackie virus B4 [14]; in [2]; in the series with Adeno virus-2; with Yellow Fever virus; in the series with Human Coronavirus (229E); in the series on Coxsackie virus B4 [16]) was over 50 µg/mL each time. The concentration giving a half-maximal response (EC50) in the series on Punta Toro virus was over 50 µg/mL.

As for `Nc1nc(O)c2ncn(COC(CO)CO)c2n1` [Ganciclovir, reference compound], the results for the EC50 (in series [1]; in the series with Vaccinia virus; in series [2]) were 0.09 µM, over 100 µM and 0.4 µM, respectively. The compound further gave a CC50 in the series “in vitro [3]” of over 100 µM.

(Values after article PMC9680032, “Conformationally Locked Carbocyclic Nucleosides Built on a 4′-Hydroxymethyl-3′-hydroxybicyclo[4.1.0]heptane Template. Stereoselective Synthesis and Antiviral Activity” (The Journal of Organic Chemistry, 2022).)
